Where a SMILES comes first, the peptide text is derived from it.
Tests used:
[1] = species on record: Rattus norvegicus; assay: Tested for antagonist activity in rat uterus with respect to human angiotensin II as reference; assay type: functional; details: read-out: pA2 (converted)
[2] = species on record: Rattus norvegicus; assay: Tested for agonist activity in rat uterus with respect to human angiotensin II; assay type: functional

Structure (SMILES)	Kb [1] [µM]	Agonist activity [2] [%]
CC[C@H](C)[C@@H]1NC(=O)[C@H](Cc2ccc(O)cc2)NC(=O)[C@H](Cc2ccccc2)NC(=O)[C@@H]2CCCN2C(=O)[C@H](Cc2c[nH]cn2)NC1=O (cyclo(FYIHP)) [listing 1 of 2 here]	> 10	–
CC[C@H](C)[C@@H]1NC(=O)[C@H](Cc2ccc(O)cc2)NC(=O)[C@H](Cc2ccccc2)NC(=O)[C@@H]2CCCN2C(=O)[C@H](Cc2c[nH]cn2)NC1=O (cyclo(FYIHP)) [listing 2 of 2 here]	–	<0.1

— ChEMBL document CHEMBL1127853, “Novel synthesis of cyclic amide-linked analogues of angiotensins II and III” (J Med Chem, 1994)
